Results reported in patent publication US20250136558A1, “PYRAZINE COMPOUNDS AS IRREVERSIBLE INHIBITORS OF FLT3” (BIOMEA FUSION, INC., priority 2021, published 2025).

Tests used:
Assay type in all cases: cell-based
MOLM-13 = assay: Proliferation inhibition (CellTiter-Glo) in MOLM-13 cells; conditions: Homo sapiens, 96 h, MOLM-13 AML cells, heterozygous FLT3-ITD, IC50 (4 days)
From the text: (§1) The Proliferation Inhibitory Effect was Investigated in Human AML Cell Lines MOLM-13 (AddexBio: C0003003) [REF: Pubmed: 9305600] and MV-4-11 (ATCC: CRL-9591) [REF PMID: 3496132], and CML cell line […] (ATCC: CRL-3343) [REF PMID: 163658]. Molm-13 is heterozygous for FLT3-ITD mutation, while MV4-11 is homozygous for FLT3-ITD [PMID: 12529668]. […] Cells were maintained in RPMI-1640 medium (ThermoFisher catalog no. 61870036) supplemented with 10% of Heat Inactivated FBS (ThermoFisher catalog no.A31605) and 1% Pen-Strep (Thermofisher catalog no. 10378016) and cultured at 37° C. in a humidified incubator with 5% CO2. Cell lines were […], and the cells were maintained in a range 70%-80% confluency.
(§2) ATP is present in all metabolically active cells and is considered as a marker for cell viability and proliferation. Metabolic cell activity was determined using the CellTiter-Glo kit (Promega catalog no. G7572), an ATP monitoring system based on the production of luminescence by the reaction of ATP with added UltraGlo® recombinant luciferase (Kawano et al., 2016, PLOS One, 8; 11(7):e0158888), according to the supplier's experimental recommendations. The assay was based on a 96 well plate format.
(§3) Test compounds were dissolved at 10 mM in DMSO (Sigma catalog no. D8418; purity 299.9%) and stored at −20° C. Eight concentrations of test compound were assessed in duplicate in an individual test occasion in parallel in the selected cell lines. Gilteratinib and FF-10101 were used as reference compounds and tested in duplicate at eight concentrations. 100% of proliferation is represented by the untreated cells (0.2% DMSO).
(§4) On the day of the experiment (TO), cells were quantified with the cell viability analyser NucleoCounter (Chemometec NC-200) and diluted with fresh medium to obtain the cell density of about 10,000 cells per 200 μL medium. 200 μL of cell suspension were added into wells in the 96 well plate.
(§5) After 2 hours from seeding cells, compounds were added using a D300e compound dispenser (Life Sciences Tecan D300) at desired concentrations with shaking between each compound dispensed. Cell plates containing 200 μL/well suspension were incubated at 37° C. in a humidified incubator with […].
(§6) […] Contents were mixed for 5 min on an orbital shaker to induce cell lysis, and then incubated at room temperature for an additional 10 min in the dark to stabilize the luminescent signal. Luminescence was read by using a GloMax GM300 plate reader (Promega) using the luminescence for 96 well plate standard protocol.
(§7) Results were analysed by GraphPad (Prism) and IC50 values were calculated by non-linear regression using four parameter-logistic equation.

MV-4-11 = assay: Proliferation inhibition (CellTiter-Glo) in MV-4-11 cells; conditions: Homo sapiens, MV4-11, 96 h, MV-4-11 AML cells, homozygous FLT3-ITD, IC50 (4 days)
From the text: as §1, §2, §3, §4, §5, §6, §7

K-562 = assay: Proliferation inhibition (CellTiter-Glo) in K-562 cells; conditions: Homo sapiens, K562, 96 h, K-562 CML cells, no FLT3 mutations, IC50 (4 days)
From the text: as §1, §2, §3, §4, §5, §6, §7

| Structure (SMILES) | IC50 (MOLM-13) | IC50 (MV-4-11) | IC50 (K-562) |
| --- | --- | --- | --- |
| C=CC(=O)N(C)[C@@H](C)C(=O)NCCCOc1cccc(Nc2nc(NC3CCOCC3)c(CC)nc2C(N)=O)c1 [Compound 36, 6-ethyl-3-[3-[3-[[(2S)-2-[methyl(prop-2-enoyl)amino]propanoyl]amino]propoxy]anilino]-5-(tetrahydropyran-4-ylamino)pyrazine-2-carboxamide] | 1 to 10 nM | < 1 nM | > 500 nM |
| CC#CC(=O)NCCC(=O)NCCc1cc(Nc2nc(NC3CCOCC3)c(CC)nc2C(N)=O)cc(OC)c1 [Compound 101, 3-[3-[2-[3-(but-2-ynoylamino)propanoylamino]ethyl]-5-methoxy-anilino]-6-ethyl-5-(tetrahydropyran-4-ylamino)pyrazine-2-carboxamide] | 10 to 100 nM | 10 to 100 nM | > 500 nM |
| CCc1nc(C(N)=O)c(Nc2cccc(OCCCNC(=O)[C@H](C)N(C)C(=O)/C=C/CN(C)C)c2)nc1OC [Compound 120, (S,E)-3-((3-(3-(2-(4-(dimethylamino)-N-methylbut-2-enamido)propanamido)propoxy)phenyl)amino)-6-ethyl-5-methoxypyrazine-2-carboxamide] | 1 to 10 nM | 1 to 10 nM | > 500 nM |
| C=CS(=O)(=O)NCCNc1cc(Nc2nc(NC3CCOCC3)c(CC)nc2C(N)=O)ccn1 [Compound 23, 6-Ethyl-5-((tetrahydro-2H-pyran-4-yl)amino)-3-((2-((2-(vinylsulfonamido)ethyl)amino)pyridin-4-yl)amino)pyrazine-2-carboxamide] | 10 to 100 nM | 10 to 100 nM | 100 to 500 nM |
| C=CC(=O)N1CC(CC(=O)Nc2cccc(Nc3nc(NC4CCOCC4)c(CC)nc3C(N)=O)c2)C1 [Compound 105, 6-ethyl-3-[3-[[2-(1-prop-2-enoylazetidin-3-yl)acetyl]amino]anilino]-5-(tetrahydropyran-4-ylamino)pyrazine-2-carboxamide] | 10 to 100 nM | 1 to 10 nM | > 500 nM |
| C=CS(=O)(=O)NCC#Cc1cccc(Nc2nc(NC3CCOCC3)c(CC)nc2C(N)=O)c1 [Compound 10, 6-Ethyl-5-((tetrahydro-2H-pyran-4-yl)amino)-3-((3-(3-(vinylsulfonamido)prop-1-yn-1-yl)phenyl)amino)pyrazine-2-carboxamide] | 100 to 500 nM | 100 to 500 nM | > 500 nM |
| CCc1nc(C(N)=O)c(Nc2cccc(OCCCNC(=O)[C@H](C)N(C)C(=O)/C=C/CN(C)C)c2)nc1N1CCCC1 [Compound 142, (S,E)-3-((3-(3-(2-(4-(dimethylamino)-N-methylbut-2-enamido)propanamido)propoxy)phenyl)amino)-6-ethyl-5-(pyrrolidin-1-yl)pyrazine-2-carboxamide] | 1 to 10 nM | 1 to 10 nM | > 500 nM |
| CCc1nc(C(N)=O)c(Nc2cccc(OCCCNC(=O)[C@H](C)N(C)C(=O)/C=C/CN(C)C)c2)nc1C1CC1 [Compound 125, (S,E)-5-cyclopropyl-3-((3-(3-(2-(4-(dimethylamino)-N-methylbut-2-enamido)propanamido)propoxy)phenyl)amino)-6-ethylpyrazine-2-carboxamide] | 10 to 100 nM | 1 to 10 nM | > 500 nM |
| CC#CC(=O)N(C)[C@@H](C)C(=O)NCCCOc1cc(F)cc(Nc2nc(NC3CCOCC3)c(CC)nc2C(N)=O)c1 [Compound 128, (S)-6-ethyl-3-((3-fluoro-5-(3-(2-(N-methylbut-2-ynamido)propanamido)propoxy)phenyl)amino)-5-((tetrahydro-2H-pyran-4-yl)amino)pyrazine-2-carboxamide] | 1 to 10 nM | 1 to 10 nM | > 500 nM |
| CCc1nc(C(N)=O)c(Nc2cccc(CCNC(=O)C(C)(C)N(C)C(=O)/C=C/CN(C)C)c2)nc1C [Compound 229, (E)-3-((3-(2-(2-(4-(dimethylamino)-N-methylbut-2-enamido)-2-methylpropanamido)ethyl)phenyl)amino)-6-ethyl-5-methylpyrazine-2-carboxamide] | > 500 nM | > 500 nM | > 500 nM |
| CC#CC(=O)NCC#Cc1cccc(Nc2nc(NC3CCOCC3)c(CC)nc2C(N)=O)c1 [Compound 14, 3-((3-(3-(But-2-ynamido)prop-1-yn-1-yl)phenyl)amino)-6-ethyl-5-((tetrahydro-2H-pyran-4-yl)amino)pyrazine-2-carboxamide] | 10 to 100 nM | 10 to 100 nM | > 500 nM |
| CC#CC(=O)N(C)CCC(=O)NCCc1cc(Nc2nc(NC3CCOCC3)c(CC)nc2C(N)=O)cc(OC)c1 [Compound 35, 3-[3-[2-[3-[but-2-ynoyl(methyl)amino]propanoylamino]ethyl]-5-methoxy-anilino]-6-ethyl-5-(tetrahydropyran-4-ylamino)pyrazine-2-carboxamide] | 10 to 100 nM | 10 to 100 nM | > 500 nM |
| CCc1nc(C(N)=O)c(Nc2cccc(OCCCNC(=O)[C@H](C)N(C)C(=O)/C=C/CN3CCC3)c2)nc1NC1CCOCC1 [Compound 134, (S,E)-3-((3-(3-(2-(4-(azetidin-1-yl)-N-methylbut-2-enamido)propanamido)propoxy)phenyl)amino)-6-ethyl-5-((tetrahydro-2H-pyran-4-yl)amino)pyrazine-2-carboxamide] | 1 to 10 nM | < 1 nM | > 500 nM |
| C=CC(=O)NCCNc1cc(Nc2nc(NC3CCOCC3)c(CC)nc2C(N)=O)ccn1 [Compound 20, 3-((2-((2-Acrylamidoethyl)amino)pyridin-4-yl)amino)-6-ethyl-5-((tetrahydro-2H-pyran-4-yl)amino)pyrazine-2-carboxamide] | 100 to 500 nM | 10 to 100 nM | > 500 nM |
| CCc1nc(C(N)=O)c(Nc2cc(CCNC(=O)[C@H](C)N(C)C(=O)C#CCN(C)C)cc(OC)c2)nc1NC1CCOCC1 [Compound 136, (S)-3-((3-(2-(2-(4-(dimethylamino)-N-methylbut-2-ynamido)propanamido)ethyl)-5-methoxyphenyl)amino)-6-ethyl-5-((tetrahydro-2H-pyran-4-yl)amino)pyrazine-2-carboxamide] | 1 to 10 nM | < 1 nM | > 500 nM |
| CCc1nc(C(N)=O)c(Nc2cc(C#CCNC(=O)[C@H](C)N(C)C(=O)/C=C/CN(C)C)cc(OC)c2)nc1NC1CCOCC1 [Compound 103, 3-[3-[3-[[(2S)-2-[[(E)-4-(dimethylamino)but-2-enoyl]-methyl-amino]propanoyl]amino]prop-1-ynyl]-5-methoxy-anilino]-6-ethyl-5-(tetrahydropyran-4-ylamino)pyrazine-2-carboxamide] | 1 to 10 nM | < 1 nM | > 500 nM |
| CC#CC(=O)N(C)[C@@H](C)C(=O)NCCOc1cccc(Nc2nc(NC3CCOCC3)c(CC)nc2C(N)=O)c1 [Compound 104, 3-[3-[2-[[(2S)-2-[but-2-ynoyl(methyl)amino]propanoyl]amino]ethoxy]anilino]-6-ethyl-5-(tetrahydropyran-4-ylamino)pyrazine-2-carboxamide] | 1 to 10 nM | 1 to 10 nM | > 500 nM |
| CC#CC(=O)N(C)[C@@H](C)C(=O)NCC#Cc1cc(Nc2nc(NC3CCOCC3)c(CC)nc2C(N)=O)cc(OC)c1 [Compound 108, 3-[3-[3-[[(2S)-2-[but-2-ynoyl(methyl)amino]propanoyl]amino]prop-1-ynyl]-5-methoxy-anilino]-6-ethyl-5-(tetrahydropyran-4-ylamino)pyrazine-2-carboxamide] | 1 to 10 nM | 1 to 10 nM | > 500 nM |
| CCc1nc(C(N)=O)c(Nc2cccc(OCCCNC(=O)[C@H](C)N(C)C(=O)/C=C/CN(C)C)c2)nc1NC1CCOCC1 [Compound 37, 3-[3-[3-[[(2S)-2-[[(E)-4-(dimethylamino)but-2-enoyl]-methyl-amino]propanoyl]amino]propoxy]anilino]-6-ethyl-5-(tetrahydropyran-4-ylamino)pyrazine-2-carboxamide] | < 1 nM | < 1 nM | > 500 nM |
